Experiment [1] relates to bone resorption (skullcaps of new-born mice). The experiment can be described thus: Test of mouse calvarium: bone resorption by release of 45Ca from skullcaps of new-born mice, ex-vivo. The settings on record: inhibition of bone resorption (45Ca release) in half-calvaria, 48 hours contact; for inhibition at 10 µM: Mus musculus, read-out: Mouse cavarium % inhibition at 10 μM. From the text: 2—Test of Mouse Calvarium
Injection of a tracer dose of ^45Ca (CaCl2) to gestating female mice in order to study bone resorption by measuring the release of ^45Ca from the skullcaps of new-born mice.
Determination of the activity of a molecule on bone resorption, ex-vivo study.
Vehicle: DMSO, H2O/BSA (0.1%)
Dose: Variable ([…] in screening).
Echistatin (ref. H-9010-BACHEM)
^45Ca in the form of an aqueous solution of CaCl2—ref. CES3 AMERSHAM or NEZ-013 NEN.
Vehicle: Physiological serum
Dose: 25 μCi/mouse/0.4 ml
CMRL 1066 with phenol red (ref. 041-01535 M/GIBCO) supplemented by 0.1% BSA and penicillin/streptomycin.
1) Injection of ^45Ca to Gestating Mice (OF1, Strain: Swiss)
a) Preparation of the Labelled Solution:
190 μl of the mother solution of calcium at 2 mci/ml is added to 6 ml of physiological serum.
On the 17th day of gestation the mice receive 400 μl of this solution by intravenous route, that is 25 μCi/mouse.
2) Removal of the Tissue (Skullcap (Calvarium))
Six days after their birth the new-born mice are decapitated, then the head is recovered, and the skin is incised from the nape to the front. The skullcap is removed by cutting it out with scissors, and using a punch two exactly identical half-calvaria (one on the left and one on the right) are cut from the parietal bones. One will serve as the control, the other will be used to test the product to be studied.
Each half calvarium is placed in a well of a 24-well plate, containing 1 ml of medium, on a 100 μm polyethylene and nylex support, in order to avoid all contact with the bottom of the well.
After 24 hours, the polyethylene supports carrying the calvaria are transferred into new 24-well plates containing 1 ml of fresh medium and the products to be tested or their solvents. 200 μl of medium from the first plates is removed from each well and a first count of the radioactivity is carried out (value A).
This change of medium allows all the mechanical stress associated with the removal to be eliminated.
48 hours after putting the tissues in contact with the studied products, 200 μl of medium is removed from each well and counted (value B), so as to determine the quantity of ^45Ca released from the medium during the so-called resorption phase.
The calvarium is then completely demineralized in 1 ml of 5% trichloracetic acid and after digestion, 200 μl is also removed and counted so as to determine the quantity of calcium remaining in the bone (value C). Expression of the results
A % of bone resorption is calculated for each half-calvarium (each well) in the following manner:
% bone resorption=dpm B/dpm (A+B+C)×100
The sum of dpm A+B+C represents the quantity of ^45Ca incorporated in each bone part on the day of removal.
In order to measure the effect of a product, the ratio of the percentage of bone resorption of the treated well and of the corresponding control well is calculated for each point. The value found called the resorption index is comprised between 0 and 1 if the product inhibits bone resorption and is >1 if the product potentializes it. The average of the 6 indices (since there are 6 points/group) of each product is then calculated which gives one index/product. If this index is subtracted from the value 1, the inhibitory power of the product is obtained, which can be expressed as a percentage.
Furthermore a statistical test (Student T-test) is carried out by comparing point/point the individual resorption indices.

The target of a further experiment is human αvβ3 receptor (Homo sapiens, UniProt P05106+P06756). As to the kind of experiment: Displacement of the binding Vitronectin/Vitronectin receptor (αvβ3), competition test. The settings on record: human vitronectin coated plates, 3 hours at ambient temperature, read-out: Competition test Vn/VR (αvβ3) binding IC50 en. As for the experimental part: 1—Study of the Products of the Invention on the Displacement of the Binding: Vitronectin/Vitronectin Receptor (αvβ3) […]
MaxiSorp 96-well plates are coated overnight at 4° C., with 100 μl of human Vitronectin (cf Yatohgo et al. Cell., Structure and fraction 13: 281-292 (1988)) at 2 μg/ml, (Dilution in coating buffer).
The next day, the wells are emptied and the ligands (Vitronectin) are then fixed (see fixing buffer) for one hour at ambient temperature under gentle agitation.
The wells are washed six times (see washing buffer), then the following are added to each well and in this order:
40 μl of incubation buffer, 10 μl of the dilution of the product to be tested, (the products are diluted in a 50/50 mixture of DMSO-H2O) 50 μl of human αvβ3 receptor (cf Pytela et al. Methods Enzymol (1987) 144:475) (dilution in incubation buffer, to be adapted according to the receptor batch and according to the ligand).
The ligand, the human αvβ3 receptor and the products to be studied are incubated for 3 hours at ambient temperature under gentle agitation.
The wells are again washed six times, then incubated for 2 hours at ambient temperature under gentle agitation, in the presence of 100 μl of anti-receptor, 4B12-HRP antibody coupled to a peroxidase (the 4B12-HRP antibody is diluted in an incubation buffer. The dilution is to be adapted according to the receptor batch).
This kit contains a bottle A of substrate (3,3′,5,5′-tetramethylbenzidine at 0.4 g/l) and a bottle B (H2O2 at 0.02% in a citrate/citric acid buffer). Extemporaneously, a volume of A is mixed with a volume of B, then the reaction mixture is distributed at a rate of 100 μl/well. The enzymatic reaction develops over […] for Vitronectin/αvβ3, then its development is stopped by the addition of 100 μl of 1M phosphoric acid. The optical density is measured at 450 nm. […]
coating buffer: Carbonate 0.05 M, NaOH pH 9.6 fixing buffer: PBS containing 0.5% BSA (pH 7.4) washing buffer: PBS containing 0.05% Tween 20 (pH 7.4)
Expression of the Results:
The following curve is traced: the percentage of binding of the human vitronectin as a function of the logarithm of the concentration of each product tested.
For each product the IC50 is determined according to the following formula:
BO=Maximum binding in the absence of any product
Bmin=Minimum binding in the presence of the highest concentration of product.

Where a name gives a salt, the structure may show the parent alone.

As to “4-((4-(((Amino)iminomethyl)hydrazono)-9,10-dimethoxy-1,2,3,4,5,6-hexahydrobenz(e)azulen-8-yl)oxy)-butanoic Acid [EX. 2]”, in experiment [1], the “Mouse cavarium % inhibition at 10 μM” value is reported as 19%. For the same compound, the IC50 on human αvβ3 receptor was 450 nM.

For “4-((4-(((Amino)iminomethyl)hydrazono)-9,10-dimethoxy-1,2,3,4,5,6-hexahydrobenz(e)azulen-8-yl)oxy)-pentanoic Acid [EX. 3]”, on human αvβ3 receptor, the IC50 was determined as 2100 nM.

Regarding `COc1c(OCCC(NC(=O)OCc2ccccc2)C(=O)O)cc2c(c1OC)C1=C(CCC1)C(=NNC1=NCCCN1)CC2` (racemic), in experiment [1], the inhibition at 10 µM worked out at 30%. For the same compound, at human αvβ3 receptor, the IC50 came out at 6 nM.

As for `COc1c(OCCC(NC(=O)OCc2ccccc2)C(=O)O)cc2c(c1OC)C1=C(CCC1)C(=NNC1=NCCN1)CC2` (racemic) [EX. 24, O-[4-[(4,5-dihydro-1H-imidazol-2-yl)hydrazono)-9,10-dimethoxy-1,2,3,4,5,6-hexahydro-8-benz(e)azulenyl]-N-[(phenylmethoxy)carbonyl]-DL-homoserine], the inhibition at 10 µM in experiment [1] turned out to be 18%. In addition, the IC50 on human αvβ3 receptor was 30 nM.

With `O=C(NC(CCOc1ccc2c(c1)CCC(=NNC1=NCCN1)C1=C2CCC1)C(=O)O)OCc1ccccc1` (racemic) [EX. 25, O-[4-[(4,5-Dihydro-1H-imidazol-2-yl)hydrazono)-1,2,3,4,5,6-hexahydro-8-benz(e)azulenyl]-N-[(phenylmethoxy)-carbonyl]-DL-homoserine], the inhibition at 10 µM in experiment [1] stood at 26%. Besides, the IC50 on human αvβ3 receptor is 13 nM.

Consider `COc1c(OCCC(NC(=O)OCc2ccccc2)C(=O)OCC(O)CO)cc2c(c1OC)C1=C(CCC1)C(=NNC1=NCCCN1)CC2` (racemic) [EX. 27, (2,3-Dihydroxypropyl) Ester of O-(9,10-Dimethoxy1,2,3,4,5,6-hexahydro 4-[(1,4,5,6-tetrahydro2-pyrimidinyl)hydrazono]-8-benz(e)azulenyl]N-[(phenylmethoxy)carbonyl]DL-homoserine.], for which the “Mouse cavarium % inhibition at 10 μM” value in experiment [1] is listed as 39%. Moreover, the IC50 on human αvβ3 receptor was 170 nM.

As to `COc1c(OCCC(NS(=O)(=O)c2cccc3cccnc23)C(=O)O)cc2c(c1OC)C1=C(CCC1)C(=NNC1=NCCN1)CC2` (racemic) [EX. 28, O-[4-[(4,5-Dihydro1H-imidazol-2-yl)hydrazono]9,10-dimethoxy 1,2,3,4,5,6-hexahydro8-benz(e)azulenyl]N-[(8-quinolinyl)sulphonyl]DL-homoserine], the inhibition at 10 µM in experiment [1] was 27%. In addition, the IC50 on human αvβ3 receptor is 15 nM.

On to `COc1c(OCCC(NC(=O)OCCCn2cnc(-c3cccnc3)c2)C(=O)O)cc2c(c1OC)C1=C(CCC1)C(=NNC1=NCCN1)CC2` (racemic) [EX. 29, Monohydrochloride of O-[4-[(4,5-Dihydro1H-imidazol-2-yl)hydrazono]9,10-dimethoxy1,2,3,4,5,6-hexahydro8-benz(e)azulenyl]N-[[3-[4-(3-pyridinyl)1H-imidazol-1-yl]propoxy]carbonyl]DL-homoserine], for which, in experiment [1], the inhibition at 10 µM was 18%. Besides, on human αvβ3 receptor, the IC50 came out at 28 nM.

Turning to `COc1c(OCCC(NC(=O)OCc2ccccc2)C(=O)O)cc2c(c1OC)C1=C(CCC1)C(=NNC1=NCCCCN1)CC2` (racemic) [EX. 31, O-[9,10-Dimethoxy1,2,3,4,5,6-hexahydro4-[(4,5,6,7-tetrahydro1H-1,3-diazepin-2-yl)hydrazono]8-benz(e)azulenyl]N-[(phenylmethoxy)carbonyl]DL-homoserine], the inhibition at 10 µM in experiment [1] was 20%. Further, the IC50 at human αvβ3 receptor came out at 55 nM.

On to `COc1c(OCCC(NC(=O)OCc2ccccc2)C(=O)O)cc2c(c1OC)C1=C(CCC1)C(=NNC1=NC3CCCCC3N1)CC2` (racemic) [EX. 32, O-[9,10-Dimethoxy1,2,3,4,5,6-hexahydro4-[(3a,4,5,6,7,7a-hexahydro1H-benzimidazol-2-yl)hydrazono]8-benz(e)azulenyl]N-[(phenylmethoxy)carbonyl]DL-homoserine], for which the IC50 on human αvβ3 receptor came to 35 nM.

With `COc1c(OCCCCC(=O)O)cc2c(c1OC)C1=C(CCC1)C(=NNC1=NCCN1)CC2` [EX. 6, 5-(9,10-dimethoxy-1,2,3,4,5,6-hexahydro-4-(4,5-dihydro-1H-imidazolin-2-yl)hydrazono)-8-benz(e)azulenyl)oxy)-pentanoic Acid], the inhibition at 10 µM in experiment [1] is 7.5%. On human αvβ3 receptor, the IC50 stood at 110 nM.

For the compound `COc1c(OCCCCCC(=O)O)cc2c(c1OC)C1=C(CCC1)C(=NNC1=NCCN1)CC2` [EX. 8, 6-(4((4,5-Dihydro-1H-imidazolin-2-yl)hydrazono)-9,10-dimethoxy-1,2,3,4,5,6-hexahydro-8-benz(e)azulenyl)oxy)-hexanoic Acid], the IC50 on human αvβ3 receptor came to 2790 nM.

In the case of `COc1c(OCC(=O)C(C)(C)CC(=O)O)cc2c(c1OC)C1=C(CCC1)C(=NNC1=NCCN1)CC2` [EX. 10, 5-(4((4,5-Dihydro-1H-imidazolin-2-yl)hydrazono)-9,10-dimethoxy-1,2,3,4,5,6-hexahydro-S-benz(e)azulenyl)oxy)-3,3-dimethyl-4-oxo-pentanoic Acid], the inhibition at 10 µM in experiment [1] was determined as 8%. Besides, the IC50 on human αvβ3 receptor was found to be 800 nM.

As for `COc1c(OCCCC(=O)O)cc2c(c1OC)C1=C(CCC1)C(=NNC1=NCCN1)CC2` [EX. 11, 4-(4((4,5-Dihydro-1H-imidazolin-2-yl)hydrazono)-9,10-dimethoxy-1,2,3,4,5,6-hexahydro-8-benz(e)azulenyl)oxy)-butanoic Acid], in experiment [1], the inhibition at 10 µM came to 7%. In addition, the IC50 at human αvβ3 receptor came to 50 nM.

`O=C(O)CCCOc1ccc2c(c1)CCC(=NNC1=NCCN1)C1=C2CCC1` [EX. 21, 4-(4((4,5-Dihydro-1H-imidazolin-2-yl)hydrazono)-1,2,3,4,5,6-hexahydro-8-benz(e)azulenyl)oxy)-butanoic Acid]: the IC50 at human αvβ3 receptor was 37 nM.

Consider `N=C(N)NN=C1CCc2cc(OCCCCC(=O)O)c3c(c2C2=C1CCC2)OCO3` [EX. 22, 5-((8-(((Amino)iminomethyl)hydrazono)-6,7,8,9,10,11-hexahydro-azuleno(5,6-d)-1,3-benzodioxol-4-yl)-oxy)-pentanoic Acid], for which, at human αvβ3 receptor, the IC50 worked out at 2360 nM.

The term inhibition denotes how much of the control response was suppressed.
